Results on four molecules are retold here after patent publication US12600732B2, “Bifunctional compounds for degrading BTK via ubiquitin proteosome pathway” (NURIX THERAPEUTICS, INC., priority 2019, dated 2026).

Data set [1] has as its system B cell receptor (BCR) signaling. The experiment in a line: B cell activation assay (flow cytometry), mouse B cells. Type of data set: cell-based. The settings on record: treatment 4 h, IgM stimulation 18 h. The method in brief:
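Compound was present throughout BCR stimulation. Live single lymphocytes were gated into CD20+CD3− B cells and CD3+CD20− T cells by flow cytometry. Geometric MFI of CD86 and CD69 was measured per population, with unstimulated samples defining baseline activation.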

In a further data set the target is T1, TEC kinase (Homo sapiens, UniProt P42680).
T1 construct: endogenous in cells; host or cells: K562
T1 sequence (P42680 1-631): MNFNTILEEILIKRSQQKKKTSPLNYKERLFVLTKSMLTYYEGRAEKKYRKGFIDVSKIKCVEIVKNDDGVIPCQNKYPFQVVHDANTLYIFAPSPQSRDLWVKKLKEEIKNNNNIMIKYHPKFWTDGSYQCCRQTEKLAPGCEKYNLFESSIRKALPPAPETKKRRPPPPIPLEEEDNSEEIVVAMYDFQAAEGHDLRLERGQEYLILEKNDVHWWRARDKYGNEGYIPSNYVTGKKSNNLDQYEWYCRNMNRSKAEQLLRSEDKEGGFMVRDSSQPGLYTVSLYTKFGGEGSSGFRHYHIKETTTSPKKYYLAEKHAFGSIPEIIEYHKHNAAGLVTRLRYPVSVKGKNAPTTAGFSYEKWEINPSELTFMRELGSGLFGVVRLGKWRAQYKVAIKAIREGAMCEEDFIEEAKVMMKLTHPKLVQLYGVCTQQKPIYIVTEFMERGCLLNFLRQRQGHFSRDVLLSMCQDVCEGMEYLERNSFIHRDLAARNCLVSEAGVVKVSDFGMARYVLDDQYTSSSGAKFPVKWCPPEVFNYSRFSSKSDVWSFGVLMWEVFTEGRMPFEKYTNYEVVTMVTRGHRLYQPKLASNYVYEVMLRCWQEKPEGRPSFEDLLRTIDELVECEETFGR
The experiment in a line: TEC kinase degradation in K562 cells (western blot). Type of data set: cell-based. The settings on record: FIGS. 13A-13D; for effects on TEC kinase levels: four hours, 0.026-2000 nM, western blot. The method, then: To determine effects of BTK CTMs on TEC levels in cells, K562 cells were treated for four hours with CTMs at concentrations between 0.026-2000 nM. TEC levels in cell lysate was assessed by western blot.
A general note: Immunoblotting shows a protein as a band on a membrane.

The next data set deals with TMD8 cells. The experiment in a line: Cell viability assay (CellTiter-Glo), TMD8 cells. The settings on record: for pEC50: Homo sapiens, TMD8, 72 h; for EMAX (% viable cells): TMD8 cells, treatment time 72 h.
Another data set deals with T2, Ikaros (Homo sapiens, UniProt Q13422+Q96SW2).
T2 construct: endogenous in cells; host or cells: Mino, Rec-1
T2 sequence (Q13422 whole entry): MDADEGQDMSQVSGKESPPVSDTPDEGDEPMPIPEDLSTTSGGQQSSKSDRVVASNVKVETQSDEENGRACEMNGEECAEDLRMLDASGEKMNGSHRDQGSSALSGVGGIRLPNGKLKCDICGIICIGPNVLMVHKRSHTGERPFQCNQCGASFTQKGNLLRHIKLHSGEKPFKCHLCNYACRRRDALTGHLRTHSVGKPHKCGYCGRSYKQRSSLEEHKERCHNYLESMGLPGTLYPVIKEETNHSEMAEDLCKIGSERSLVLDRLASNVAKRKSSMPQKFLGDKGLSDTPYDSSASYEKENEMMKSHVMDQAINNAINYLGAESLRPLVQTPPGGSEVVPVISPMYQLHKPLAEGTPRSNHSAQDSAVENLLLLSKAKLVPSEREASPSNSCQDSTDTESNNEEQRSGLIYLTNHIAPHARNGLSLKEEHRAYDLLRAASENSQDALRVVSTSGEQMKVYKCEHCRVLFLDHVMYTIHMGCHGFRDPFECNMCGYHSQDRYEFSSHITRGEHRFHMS
T2 sequence (Q96SW2 whole entry): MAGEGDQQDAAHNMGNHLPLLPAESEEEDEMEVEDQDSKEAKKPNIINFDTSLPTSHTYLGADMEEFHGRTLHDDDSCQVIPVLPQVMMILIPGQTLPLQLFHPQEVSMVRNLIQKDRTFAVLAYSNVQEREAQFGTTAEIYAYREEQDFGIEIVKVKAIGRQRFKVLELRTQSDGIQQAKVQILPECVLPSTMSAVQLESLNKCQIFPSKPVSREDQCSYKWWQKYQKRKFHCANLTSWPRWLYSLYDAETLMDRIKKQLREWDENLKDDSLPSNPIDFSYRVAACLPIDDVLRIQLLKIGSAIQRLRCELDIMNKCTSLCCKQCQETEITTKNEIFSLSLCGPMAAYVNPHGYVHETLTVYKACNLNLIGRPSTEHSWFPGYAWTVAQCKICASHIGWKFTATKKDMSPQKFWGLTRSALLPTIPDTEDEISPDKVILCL
T2 sequence (Q16531 whole entry partner): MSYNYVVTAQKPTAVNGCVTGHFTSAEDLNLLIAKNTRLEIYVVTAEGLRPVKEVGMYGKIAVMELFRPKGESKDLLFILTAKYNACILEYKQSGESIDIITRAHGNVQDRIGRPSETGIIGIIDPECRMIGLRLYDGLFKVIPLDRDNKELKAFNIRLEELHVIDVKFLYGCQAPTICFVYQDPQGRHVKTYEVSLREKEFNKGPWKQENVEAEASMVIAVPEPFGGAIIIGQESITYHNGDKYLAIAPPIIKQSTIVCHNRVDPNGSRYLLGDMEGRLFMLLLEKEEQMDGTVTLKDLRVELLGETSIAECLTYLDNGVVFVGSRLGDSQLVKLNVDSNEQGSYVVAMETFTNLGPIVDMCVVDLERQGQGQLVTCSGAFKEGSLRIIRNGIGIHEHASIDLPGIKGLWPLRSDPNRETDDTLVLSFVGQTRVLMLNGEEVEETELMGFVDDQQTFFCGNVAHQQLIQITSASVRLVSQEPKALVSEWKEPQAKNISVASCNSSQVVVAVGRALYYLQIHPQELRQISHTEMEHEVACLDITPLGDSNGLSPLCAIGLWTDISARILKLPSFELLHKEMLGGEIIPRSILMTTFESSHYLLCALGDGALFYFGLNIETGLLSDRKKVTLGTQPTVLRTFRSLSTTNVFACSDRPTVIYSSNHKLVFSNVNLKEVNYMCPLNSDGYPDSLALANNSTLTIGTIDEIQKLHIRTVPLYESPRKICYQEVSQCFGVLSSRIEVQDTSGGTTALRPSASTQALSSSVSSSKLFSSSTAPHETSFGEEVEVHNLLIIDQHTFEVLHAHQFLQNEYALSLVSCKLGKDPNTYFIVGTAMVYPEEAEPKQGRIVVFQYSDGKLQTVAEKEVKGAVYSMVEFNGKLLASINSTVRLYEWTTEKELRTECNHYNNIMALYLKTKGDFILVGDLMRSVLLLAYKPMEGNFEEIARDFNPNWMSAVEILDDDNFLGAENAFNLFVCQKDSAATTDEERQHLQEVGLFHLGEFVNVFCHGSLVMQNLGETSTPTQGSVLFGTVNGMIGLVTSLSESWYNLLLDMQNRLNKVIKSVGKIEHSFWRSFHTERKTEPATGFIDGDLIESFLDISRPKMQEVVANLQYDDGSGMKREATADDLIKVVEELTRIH
The experiment in a line: Ikaros degradation in Mantle Cell Lymphoma lines (flow cytometry). Type of data set: cell-based. The settings on record: treatment time 24 h. From the text:
Ikaros and Aiolos Degradation in Mantle Cell Lymphoma Lines (Ikaros and Aiolos Flow Cytometry)
This example evaluates the IMiD activity of CTMs in cellular models of Mantle Cell Lymphoma (MCL). […] These assays are to determine potency of CTMs for degrading IMiD neo-substrates in cellular models of MCL and to generate data to inform efficacy studies in MCL xenografts.

Data set [2] concerns primary human T cells. The experiment in a line: T cell activation assay, IL-2 secretion (ELISA). Type of data set: cell-based. Summed up: (§1)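 Primary human T cells stimulated via TCR with anti-CD3/anti-CD28 in the presence of test compound. IL-2 secretion measured by ELISA; surface CD25 and CD69 by flow cytometry. Values are fold-change versus anti-CD3/anti-CD28 stimulation without compound.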

The subject of data set [3] is primary human T cells. The experiment in a line: T cell activation assay, CD25 and CD69 staining (flow cytometry). Type of data set: cell-based. The settings on record: for CD25 Staining Anti-CD3/Anti-CD28 Stimulation / CD69 Staining Anti-CD3/Anti-CD28 Stimulation: fold-change of response relative to baseline. The method in brief: as §1
(In general: Flow cytometry measures light scatter and fluorescence of single cells or particles in a stream.)

Another data set concerns Mino cells. The experiment in a line: Cell viability assay (CellTiter-Glo), Mino cells. The settings on record: for pEC50: Homo sapiens; for pEC50 / EMAX (% viable cells): Mino cells, treatment time 72 h. Type of data set: cell-based. From the text:
(§2) This example evaluates effects of CTM-mediated degradation on cell viability. […] Mino and Rec-1 are models of Mantle Cell Lymphoma, which is sensitive to IMiDs.
(In general: Cellular ATP, detected with luciferase, serves as a proxy for viable cell number.)

The test system of the next data set is Rec-1 cells. The experiment in a line: Cell viability assay (CellTiter-Glo), Rec-1 cells. Type of data set: cell-based. The settings on record: for pEC50: Homo sapiens, Rec1, treatment time 72 h; for EMAX (% viable cells): treatment time 72 h.
Excerpt: as §2

Data set [4] is described as follows: Compound plasma exposure in mouse (CD-1), daily oral dosing, same table as the cyno DRF study. The conditions noted are these: CD-1, mouse. Type of data set: in vivo.
A short description of data set [5]: Compound plasma exposure in cyno DRF study. Type of data set: in vivo. The settings on record: cynomolgus monkey, po.
Where [6] appears, read: 1.4 nM, fold-change of response relative to baseline.
Where [7] appears, read: 37 nM, fold-change of response relative to baseline.
The mark [8] stands for this setting: 333 nM, fold-change of response relative to baseline (stimulation without compound).
Setting [9] is: 30 mg/kg, 30 mg/kg PO, 1 day of dosing.
[10] abbreviates: 30 mg/kg, 30 mg/kg PO, 14 days of dosing.
Setting [11] is: 100 mg/kg, 100 mg/kg PO, 1 day of dosing.
Setting [12] is: 100 mg/kg, 100 mg/kg PO, 14 days of dosing.
Where [13] appears, read: 300 mg/kg, 300 mg/kg PO, 1 day of dosing.
The mark [14] stands for this setting: 300 mg/kg, 300 mg/kg PO, 14 days of dosing.
Setting [15] is: 10 mg/kg, 10 mg/kg PO, 1 day of dosing.

Each structure is given as a SMILES string. pEC50: −log10 of the molar value. Like-named read-outs stand apart in the source and are kept apart here. Where only a bound is given, the exact number is not on record here.

Method for TMD8 cells: Cell viability was determined using CellTiter-Glo 2.0 Luminescent Cell Viability Assay (Promega, G9242), which quantitates the amount of ATP present as a proxy for the number of viable cells in culture. Cells were plated with densities between 2000-4000 cells per well in 96-well plates. […] CellTiter-Glo reagent was added to cells at a dilution of 1:20, and the plate was incubated ten minutes at room temperature prior to reading the luminescence signal using an EnVision plate reader. Controls included cells treated with DMSO and wells that contained no cells, only media. Background luminescence signal was determined by control wells containing no cells, only media, and was then subtracted from all sample wells. Luminescence values were then normalized to DMSO-treated wells and reported at proportion viable cells.
Here, the ability of CTMs to affect viability in BTK-dependent cell lines was assessed.

Consider `CN1CCN([C@@H]2CCCN(c3cnc(C(N)=O)c(Nc4ccc(C5CCN(CC6CCN(c7ccc8c(=O)n(C9CCC(=O)NC9=O)ccc8c7)CC6)CC5)cc4)n3)C2)C1=O` (some centres unmarked) [Compound 72], for which the results for the pEC50 (in [1] (read-out: CD69 EC50); in [1] (read-out: CD86 EC50); with TMD8 cells) were 10.15, 9.70 and 9.37, respectively. Moreover, at TEC kinase, the “degradation of BTK compared with TEC” value was “more potent degradation of BTK than TEC”. For the same molecule, the “effects on TEC kinase levels” value at TEC kinase is on record as “mild to moderate effects”. Besides, in the data set on TMD8 cells, the “EMAX (% viable cells)” value is given as 26%.
For `CN1CCN([C@@H]2CCCN(c3cnc(C(N)=O)c(Nc4ccc(C5CCN(CC6CCN(c7ccc(-c8nn(C9CCC(=O)NC9=O)c(=O)n8C)cc7)CC6)CC5)cc4)n3)C2)C1=O` (some centres unmarked) [Compound 121], the values for the pEC50 (in data set [1] (read-out: CD69 EC50); in data set [1] (read-out: CD86 EC50); in the data set on TMD8 cells) were 9.30, 9.05 and 8.81, respectively. The “EMAX (% viable cells)” value with TMD8 cells amounted to 28%.
In the case of `CN1CCN([C@H]2CCCN(c3cnc(C(N)=O)c(Nc4ccc(C5CCN(CC6CCN(c7ccc(C(=O)NC8CCC(=O)NC8=O)nc7)CC6)CC5)cc4)n3)C2)C1=O` (some centres unmarked) [Compound 130], the DC50 at Ikaros (Mino cells) and at Ikaros (Rec-1 cells) was over 2000 nM each time. The “IL-2 Secretion Anti-CD3/Anti-CD28 Stimulation” value is 1.19 in the data set on primary human T cells [2] (setting [6]), 1.42 in the data set with primary human T cells [2] (setting [7]) and 2.02 in the data set on primary human T cells [2] (setting [8]). Besides, the entries for the “CD25 Staining Anti-CD3/Anti-CD28 Stimulation” value in the data set on primary human T cells [3] (1.4 nM), in the data set on primary human T cells [3] (37 nM) and in the data set with primary human T cells [3] (333 nM) were 1.02, 0.98 and 0.55, respectively. Also, the results for the “CD69 Staining Anti-CD3/Anti-CD28 Stimulation” value in the data set on primary human T cells [3] (1.4 nM), in the data set with primary human T cells [3] (37 nM) and in the data set with primary human T cells [3] (333 nM) were 1.00, 0.96 and 0.55, respectively. Moreover, the pEC50 in the data set on Mino cells is 6.75; in the data set on Rec-1 cells it was 6.81; with TMD8 cells, 8.83. Also, the entries for the “EMAX (% viable cells)” value in the data set with Mino cells, with Rec-1 cells and in the data set on TMD8 cells were 78%, 63% and 27%, respectively. Besides, on TEC kinase, the “degradation of BTK compared with TEC” value is recorded as “more potent degradation of BTK than TEC”. Besides, the “effects on TEC kinase levels” value on TEC kinase is given as “mild to moderate effects”. Besides, the area under the curve (AUC) in data set [4] (setting [9]) came to 23.2 µM·h; in data set [4] (setting [10]), 21.1 µM·h; in [4] (setting [11]), 51.3 µM·h; in [4] (setting [12]), 49.8 µM·h; in [4] (setting [13]), 67 µM·h; in data set [4] (setting [14]), 72.2 µM·h. Moreover, the AUC in [5] (setting [15]) is 0.172 µM·h; in data set [5] (setting [9]), 0.582 µM·h; in data set [5] (setting [12]) it was 3.84 µM·h. For the same molecule, the Cmax in data set [4] (setting [9]) stood at 2200 nM; in data set [4] (setting [10]), 1700 nM; in data set [4] (setting [11]) it was 3800 nM; in data set [4] (setting [12]), 3400 nM; in data set [4] (setting [13]), 5100 nM; in data set [4] (setting [14]) it was 5200 nM. The highest level in [5] (setting [11]) (Cmax) was 96 nM.
For the molecule `NC(=O)c1ncc(N2CCCCC2)nc1Nc1ccc(C2CCN(C[C@@H]3CCN(c4ccc5c(c4)C(=O)N(C4CCC(=O)NC4=O)C5=O)C3)CC2)cc1` (some centres unmarked) [Compound 149], the DC50 turned out to be 130 nM at Ikaros (Mino cells) and 61 nM on Ikaros (Rec-1 cells). The “IL-2 Secretion Anti-CD3/Anti-CD28 Stimulation” value in the data set on primary human T cells [2] (setting [6]) came out at 1.86; in the data set on primary human T cells [2] (setting [7]) it was 3.63; with primary human T cells [2] (setting [8]), 4.24. Moreover, the “IL-2 secretion compared to baseline (anti-CD3/anti-CD28 stimulation alone)” value in the data set on primary human T cells [2] (primary human T cells) was “increased IL-2 secretion but not to the level observed with IMiDs”. Also, the “CD25 Staining Anti-CD3/Anti-CD28 Stimulation” value in the data set on primary human T cells [3] (1.4 nM) was 1.31; in the data set with primary human T cells [3] (37 nM), 1.02; in the data set with primary human T cells [3] (333 nM), 0.61. Moreover, the “CD69 Staining Anti-CD3/Anti-CD28 Stimulation” value in the data set on primary human T cells [3] (1.4 nM) is 1.22; in the data set with primary human T cells [3] (37 nM), 0.93; in the data set with primary human T cells [3] (333 nM) it was 0.63. Moreover, in the data set on primary human T cells [3] (primary human T cells), the “expression of CD25 and CD69 compared to baseline (anti-CD3/anti-CD28 stimulation alone)” value was “unchanged or decreased levels”. The pEC50 is 8.47 in the data set with Mino cells, 9.77 with Rec-1 cells and 8.02 with TMD8 cells. Moreover, the “potency on cell viability compared with compound 130” value with Mino cells (MCL cell lines (Mino and Rec-1)) is on record as “more potent”. Also, the “EMAX (% viable cells)” value in the data set with Mino cells stood at 50%; in the data set with Rec-1 cells, 24%; in the data set on TMD8 cells it was 7%. For the same molecule, the “degradation of BTK compared with TEC” value at TEC kinase is recorded as “more potent degradation of BTK than TEC”. Also, the “effects on TEC kinase levels” value at TEC kinase is recorded as “mild to moderate effects”. For the same molecule, the AUC in data set [4] (setting [9]) was 12.2 µM·h; in data set [4] (setting [10]), 22.8 µM·h; in data set [4] (setting [11]), 27.7 µM·h; in [4] (setting [12]), 33.4 µM·h; in [4] (setting [13]), 38.6 µM·h; in data set [4] (setting [14]) it was 64.2 µM·h. In addition, the AUC in data set [5] (setting [15]) is 0.386 µM·h; in data set [5] (setting [9]), 0.72 µM·h; in [5] (setting [12]), 2.66 µM·h. Further, the Cmax in data set [4] (setting [9]) was found to be 940 nM; in data set [4] (setting [10]), 1640 nM; in data set [4] (setting [11]), 2050 nM; in data set [4] (setting [12]) it was 2410 nM; in data set [4] (setting [13]), 2610 nM; in data set [4] (setting [14]), 4100 nM. Moreover, in data set [5] (setting [11]), the highest level (Cmax) was 76 nM.

The pEC50 is the EC50 on a negative log10 scale, so that one unit is a factor of ten. In general, DC50 refers to the concentration giving 50% degradation. Usually AUC stands for concentration integrated over time. Lower therefore signals less exposure. As a reminder, the Cmax is the peak of the concentration-time curve.
